Test results: PMC11272584 (Nature Metabolism, 2024)
Like-named read-outs stand apart in the source and are kept apart here. Values belong to the molecule of their own block, whether it stands above or below them.

What was measured:
[1] = tested on: GIPR W90Lfs*17; experiment: cAMP accumulation; assay type: cell-based, human; conditions: W90Lfs*; HEK293; GIP(1–42) 1 pM–100 nM, 30 min 37 °C; mean of n = 5
Experimental: (§4) HEK293 (CRL-1573, American Type Culture Collection) and β-arrestin 1/2 knockout cells, generated from HEK293A[48], were used for cAMP measurement, homologues competition binding and β-arrestin 2 recruitment. For the internalization assay, endosomal signalling and basal receptor localization experiments, HEK293A (R70507, Thermo Fisher) cells were used. Both cell lines were cultured at 5% CO2 at 37 °C in Roswell Park Memorial Institute GlutaMAX-I supplemented with 10% fetal bovine serum, 180 units ml^−1 penicillin, and 45 g ml^−1 streptomycin. For the cAMP and binding experiments, cells were transfected with the calcium phosphate precipitation method[49]. The polyethyleneimine (PEI) transfection method was used for the β-arrestin 2 recruitment assays[50], endosomal signalling and basal receptor localization assays, while the lipofectamine transfection method was used for the internalization assay.
cAMP production was measured with the DiscoverX Hithunter cAMP assay according to the manufacturer’s protocol (DiscoverX). […] On the day of the assay, the cells were washed twice with HEPES-buffered saline (HBS) and incubated with HBS and 1 mM 3-isobutyl-1-methylxanthine for 30 min at 37 °C. […] After a 3-h incubation on a shaking table in the dark, the cAMP accumulation was measured based on luminescence with a Perkin Elmer EnVision 2104 Multilabel Microplate Reader. […]

[2] = tested on: GIPR variants (groups); experiment: cAMP accumulation; assay type: cell-based, human
Experimental: as §4
cAMP production was measured with the DiscoverX Hithunter cAMP assay according to the manufacturer’s protocol (DiscoverX). […] On the day of the assay, the cells were washed twice with HEPES-buffered saline (HBS) and incubated with HBS and 1 mM 3-isobutyl-1-methylxanthine for 30 min at 37 °C. […] After the incubation, the assay medium was removed from the plate and the cells were washed with 30 µl PBS and treated with 40 µl enzyme donor–lysis buffer–chemiluminescent reagents and 10 µl cAMP antibodies for 60 min before 40 µl enzyme acceptor solution added. After a 3-h incubation on a shaking table in the dark, the cAMP accumulation was measured based on luminescence with a Perkin Elmer EnVision 2104 Multilabel Microplate Reader.
For cAMP accumulation, the data were fitted as a sigmoidal curve with a Hill slope of 1; for homologous competition binding, the data were fitted as a sigmoidal curve with a Hill slope of −1.

[3] = tested on: GIPR W90Lfs*17; conditions: GIPR W90Lfs* (ECD), mean, n = 5, duplicate
Experimental: HEK293 (CRL-1573, American Type Culture Collection) and β-arrestin 1/2 knockout cells, generated from HEK293A[48], were used for cAMP measurement, homologues competition binding and β-arrestin 2 recruitment. […] Both cell lines were cultured at 5% CO2 at 37 °C in Roswell Park Memorial Institute GlutaMAX-I supplemented with 10% fetal bovine serum, 180 units ml^−1 penicillin, and 45 g ml^−1 streptomycin. […] The polyethyleneimine (PEI) transfection method was used for the β-arrestin 2 recruitment assays[50], endosomal signalling and basal receptor localization assays, while the lipofectamine transfection method was used for the internalization assay.
Measurement of β-arrestin 2 recruitment was performed with a BRET assay. Two days before the assay, the HEK293 cells were transiently transfected with either WT GIPR or the GIPR variants together with the donor Rluc8-Arrestin-3-Sp1, the acceptor mem-linker-citrine-SH3 and the GPCR kinase 2 to facilitate β-arrestin 2 recruitment. On assay day, the cells were washed with PBS and resuspended in PBS supplemented with 5 mmol l^−1 glucose. Subsequently, 85 µl of the cell suspension was transferred to a white 96-well plate and 10 µl of 50 µM coelenterazine-h was added.

[4] = tested on: SNAP-WT GIPR; conditions: HEK293A
[5] = tested on: SNAP-GIPR M67R; conditions: HEK293A
[6] = tested on: SNAP-GIPR Y73H; conditions: HEK293A
[7] = tested on: SNAP-GIPR V99I; conditions: HEK293A
[8] = tested on: SNAP-GIPR T116R; conditions: HEK293A
[9] = tested on: SNAP-GIPR A150T; conditions: HEK293A
[10] = tested on: SNAP-GIPR A185V; conditions: HEK293A
[11] = tested on: SNAP-GIPR P195R; conditions: HEK293A
[12] = tested on: SNAP-GIPR A207V; conditions: HEK293A
[13] = tested on: GIPR variants (groups)
Experimental: Binding experiments were performed simultaneously with the same transiently transfected HEK293 cells used for the cAMP experiments to enable the correlation of receptor expression with signalling between assays. In brief, 1 day before the assay, the transfected cells were seeded in a clear 96-well plate. […] On the assay day, the cells were washed twice with 4 °C binding buffer (50 mM HEPES buffer (pH 7.2), 1 mM CaCl2, 5 mM MgCl2 and 0.5% (wt/vol) bovine serum albumin) and incubated for 15 minutes at 4 °C. […] After incubation, the cells were washed in ice-cold binding buffer and lysed with 200 mmol l^−1 NaOH with 1% sodium dodecyl sulphate for 30 min. The gamma radiation was measured with a 2470 Wizard2 Automatic Gamma Counter.
To obtain Emax, EC50, Bmax, Kd and IC50 values, we analysed the data with the non-linear regression curve fitting program GraphPad Prism Software 9 (GraphPad).
The Bmax was calculated according to the following equation[51]: Bmax=B0×IC50/[L] in which B0 represents the total specific binding and [L] is the ligand concentration. The equilibrium dissociation constant (Kd) was obtained with the equation[51]: Kd=IC50−[L]

[14] = tested on: GIPR variants (groups); remark: listed apart in the source
[15] = tested on: GIPR variants (groups); remark: listed apart in the source
Experimental: This prompted us to further assess the role of β-arrestin for GIPR signalling by investigating the endosomal signalling in representative GIPR variants from each of the six in vitro-based groups.
At 48 h post-transfection, cells were washed with HBSS and subsequently maintained in 80 µl HBSS. […] Light emission at 515/20 nm (acceptor; rGFP) and 400/70 nm (donor; Rluc8) was measured using a Tecan Spark multimode microplate reader (Männedorf).

[16] = tested on: WT GIPR; conditions: cited from earlier work
[17] = tested on: GIPR variants (groups); experiment: β-arrestin 2 recruitment (BRET);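 also: BRET readout of β-arrestin 2 recruitment in transiently transfected HEK293 cells expressing WT GIPR or a GIPR variant plus GPCR kinase 2, Rluc8 donor and citrine acceptor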
[18] = tested on: WT male mice; experiment: IPGTT in WT male mice; assay type: in vivo, mouse; parameters: Mean difference in glucose (WT + Veh. vs. WT + GLP-1): unit not given here; conditions: for Mean difference in glucose (WT + Veh. vs. WT + GLP-1): injected 15 min before glucose, n = 14 veh., 13
Text: (§1) We therefore explored the functional relationship between β-arrestin recruitment and GIP-stimulated glucose regulation by conducting pharmacological interventions in a murine genetic global germline β-arrestin 2 (Arrb2) knockout (KO) model.
(§2) Studies were approved by and performed according to the guidelines of the Institutional Animal Care and Use Committee of Duke University. Male Arrb2 KO mice (Arrb2^−/−) ~12–15 weeks of age were generously provided by Drs Howard Rockman and Robert Lefkowitz at Duke University[70]. The mice were kept in standard housing conditions with a temperature of 20–26 °C and a 12-h dark/light cycle to ensure the physiological and psychological wellbeing of the mice. Mice were fed research diets 5053. We restrictedly used male mice because of the potential impact of the sexual dimorphism, that is, the oestrus cycle in female mice on cardiometabolic traits, resulting in unwanted variability and to ensure comparability to existing research predominantly using male mice[71]. The mice were subjected to an IPGTT. […] Data collection and analysis were not randomized or blind to the conditions of the experiments. The statistical analysis was performed in GraphPad Prism.

[19] = tested on: male Arrb2 KO mice; experiment: IPGTT in male Arrb2 KO mice; assay type: in vivo, mouse; parameters: Mean difference in glucose (Arrb2-/- + Veh. vs. Arrb2-/- + GLP-1): unit not given here; conditions: for Mean difference in glucose (Arrb2-/- + Veh. vs. Arrb2-/- + GLP-1): injected 15 min before glucose, n = 13 veh., 10
Text: as §1, §2

[20] = tested on: β cell-specific β-arrestin 2 KO female mice; conditions: cited from earlier work
Text: In contrast, GIP-potentiated insulin secretion relied on β-a ...

[21] = tested on: GIPR; conditions: cited from earlier work
Text: (§3) Development of similar Gs biased analogues for the GIPR has also been proposed. Although it is not possible to genetically instrument the dual agonistic effects, our results and those of others[33] highlight that decreased recruitment of β-arrestins might benefit the GLP-1R system[36],[37] but not for the GIPR regarding its role in glycaemic control. Ye ...

[22] = molecular target: T1, GLP-1R (Homo sapiens, UniProt P43220); conditions: cited from earlier work
T1 construct: expressed in transfected cells; host or cells: parental HEK293A cells and β-arrestin 1/2 KO HEK293A cells
Text: as §3

[23] = molecular target: T2, GIPR S64P (Homo sapiens, UniProt P48546, S64P); experiment: cAMP accumulation; assay type: cell-based
T2 construct: host or cells: HEK293
T2 sequence (P48546 22-466 S64P): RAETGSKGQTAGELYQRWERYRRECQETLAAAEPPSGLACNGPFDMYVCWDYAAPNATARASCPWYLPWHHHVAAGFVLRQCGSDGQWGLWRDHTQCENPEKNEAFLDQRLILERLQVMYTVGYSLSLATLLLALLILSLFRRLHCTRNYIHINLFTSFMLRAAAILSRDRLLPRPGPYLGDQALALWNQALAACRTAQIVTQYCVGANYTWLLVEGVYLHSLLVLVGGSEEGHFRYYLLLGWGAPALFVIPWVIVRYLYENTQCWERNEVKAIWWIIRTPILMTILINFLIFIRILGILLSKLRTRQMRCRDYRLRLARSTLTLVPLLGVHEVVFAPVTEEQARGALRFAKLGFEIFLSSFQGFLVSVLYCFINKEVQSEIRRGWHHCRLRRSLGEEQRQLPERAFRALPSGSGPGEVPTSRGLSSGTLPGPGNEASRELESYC
Experimental: HEK293 (CRL-1573, American Type Culture Collection) and β-arrestin 1/2 knockout cells, generated from HEK293A[48], were used for cAMP measurement, homologues competition binding and β-arrestin 2 recruitment. […] Both cell lines were cultured at 5% CO2 at 37 °C in Roswell Park Memorial Institute GlutaMAX-I supplemented with 10% fetal bovine serum, 180 units ml^−1 penicillin, and 45 g ml^−1 streptomycin. For the cAMP and binding experiments, cells were transfected with the calcium phosphate precipitation method[49].
cAMP production was measured with the DiscoverX Hithunter cAMP assay according to the manufacturer’s protocol (DiscoverX). […] On the day of the assay, the cells were washed twice with HEPES-buffered saline (HBS) and incubated with HBS and 1 mM 3-isobutyl-1-methylxanthine for 30 min at 37 °C. […] After the incubation, the assay medium was removed from the plate and the cells were washed with 30 µl PBS and treated with 40 µl enzyme donor–lysis buffer–chemiluminescent reagents and 10 µl cAMP antibodies for 60 min before 40 µl enzyme acceptor solution added. After a 3-h incubation on a shaking table in the dark, the cAMP accumulation was measured based on luminescence with a Perkin Elmer EnVision 2104 Multilabel Microplate Reader. […]

[24] = M67R, Y73H, V99I, T116R, A150T, A185V, P195R and A207V
[25] = R12Q, L13F, R38L, A294V, I299V, E354Q, S415I, E418K, G449A and E463Q
[26] = T25R, R43G, R164Q, H166Y, I221M and K397N

T1 sequence (P43220 24-463, species assumed): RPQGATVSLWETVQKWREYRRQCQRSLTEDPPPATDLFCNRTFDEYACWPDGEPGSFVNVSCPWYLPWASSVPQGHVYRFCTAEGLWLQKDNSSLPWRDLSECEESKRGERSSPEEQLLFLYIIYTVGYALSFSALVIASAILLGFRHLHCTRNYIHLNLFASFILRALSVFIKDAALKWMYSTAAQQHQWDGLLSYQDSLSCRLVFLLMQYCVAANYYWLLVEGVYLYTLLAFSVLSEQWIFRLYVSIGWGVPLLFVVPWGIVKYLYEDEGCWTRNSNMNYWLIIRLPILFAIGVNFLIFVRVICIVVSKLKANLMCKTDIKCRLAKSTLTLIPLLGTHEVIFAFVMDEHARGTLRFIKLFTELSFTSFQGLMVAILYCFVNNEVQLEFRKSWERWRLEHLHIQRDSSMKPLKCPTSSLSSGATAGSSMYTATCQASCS

Molecule: glucose-dependent insulinotropic polypeptide [GIP]
cAMP (Emax) [1]: 11 % of WT GIPR activity
cAMP signalling activity at 100 pM GIP ([2]; 29 partial and complete LoF variants, 100 pM GIP): < 50 % of WT
cAMP production class [2, 24]: LoF (defined as <50% activity in either pathway)
cAMP production class [2, 25]: WT-like
cAMP production at higher GIP doses ([2]; R183Q, R190Q and R300W, higher GIP doses): cAMP production was restored
cAMP signalling ([2]; R190Q and E288G): impaired cAMP signalling
cAMP production class [2, 26]: maintained cAMP production
cAMP signalling at 100 pM GIP ([2]; T116R, R183Q, R190Q and R300W, 100 pM GIP): no cAMP signalling
logEC50 (Arrestin) ([3]; Hill slope 1.0): -10.8
Arrestin (Emax) ([3]; normalized to WT GIPR): 15
Emax (Dose-response), internalization ([4]; GIP 1 nM–1 µM, 37 °C, n = 4): 100 % of maximal SNAP-WT GIPR inte
LogEC50 (Dose-response), internalization ([4]; Hill slope 1.0, n = 4): -7.5
Emax (Dose-response), internalization ([5]; GIP 1 nM–1 µM, 37 °C, n = 4): 98 % of maximal SNAP-WT GIPR inte
LogEC50 (Dose-response), internalization ([5]; Hill slope 1.0, n = 4): -6.6
Emax (Dose-response), internalization ([6]; GIP 1 nM–1 µM, 37 °C, n = 4): 101 % of maximal SNAP-WT GIPR inte
LogEC50 (Dose-response), internalization ([6]; Hill slope 1.0, n = 4): -7.4
Emax (Dose-response), internalization ([7]; GIP 1 nM–1 µM, 37 °C, n = 4): 92 % of maximal SNAP-WT GIPR inte
LogEC50 (Dose-response), internalization ([7]; Hill slope 1.0, n = 4): -6.9
Emax (Dose-response), internalization ([8]; GIP 1 nM–1 µM, 37 °C, n = 4): 93 % of maximal SNAP-WT GIPR inte
LogEC50 (Dose-response), internalization ([8]; Hill slope 1.0, n = 4): -7.6
Emax (Dose-response), internalization ([9]; GIP 1 nM–1 µM, 37 °C, n = 4): 98 % of maximal SNAP-WT GIPR inte
LogEC50 (Dose-response), internalization ([9]; Hill slope 1.0, n = 4): -7.6
Emax (Dose-response), internalization ([10]; GIP 1 nM–1 µM, 37 °C, n = 4): 89 % of maximal SNAP-WT GIPR inte
LogEC50 (Dose-response), internalization ([10]; Hill slope 1.0, n = 4): -7.5
Emax (Dose-response), internalization ([11]; GIP 1 nM–1 µM, 37 °C, n = 4): 77 % of maximal SNAP-WT GIPR inte
LogEC50 (Dose-response), internalization ([11]; Hill slope 1.0, n = 4): -7.2
Emax (Dose-response), internalization ([12]; GIP 1 nM–1 µM, 37 °C, n = 4): 98 % of maximal SNAP-WT GIPR inte
LogEC50 (Dose-response), internalization ([12]; Hill slope 1.0, n = 4): -7.6
GIP binding ([13]; R190Q and E288G): maintained GIP binding
GIP binding ([13]; S64P, C84Pfs*70, R101H, Y258Sfs*50 and Q400Gfs*56): undetectable GIP binding
Binding capacity of GIP (Bmax) ([13]; all 29 LoF variants): impaired
Level of internalization ([14]; M67R, V99I and P195R): slightly diminished internalization
Internalization ([14]; R190Q and E288G (LoFcAMP/LoFarr)): did not internalize
Level of internalization ([14]; Y73H, T116R, A150T, A185V and A207V): nearly identical levels of internalization as the WT GIPR
Internalization ([14]; all eight LoFcAMP/WT-likearr variants): preserved internalization capabilities
Endosomal signalling ([15]; variants that retained β-arrestin recruitment): effectively recruited mGs to early endosomes
Endosomal signalling ([15]; variants with diminished β-arrestin recruitment): minimal to no signalling from early endosomes
β-arrestin isoform recruitment [16]: predominantly recruits β-arrestin 2 over β-arrestin 1
β-arrestin recruitment ([17]; 21 of the 29 variants with impaired cAMP production (LoFcAMP/LoFarr)): impaired β-arrestin recruitment
β-arrestin recruitment class [17, 24]: WT-like
β-arrestin recruitment class [17, 25]: WT-like
β-arrestin recruitment ([17]; R190Q and E288G): impaired cAMP signalling and β-arrestin recruitment
β-arrestin recruitment class [17, 26]: low β-arrestin recruitment
β-arrestin 2 recruitment potency ([17]; most of 47 variants, apart from a few lacking recruitment): no major differences in potency

Molecule: glucagon-like peptide-1 [GLP-1]
Blood glucose lowering in IPGTT ([18]; WT male mice, 15 min before IPGTT): significantly lowered blood glucose levels
Mean difference in glucose (WT + Veh. vs. WT + GLP-1) ([18]; time 0, P = 0.031): 19.9
Mean difference in glucose (WT + Veh. vs. WT + GLP-1) ([18]; time 15 minutes, P = 0.025): 40.3
Mean difference in glucose (WT + Veh. vs. WT + GLP-1) ([18]; time 30 minutes, P = 0.094): 28.3
Mean difference in glucose (WT + Veh. vs. WT + GLP-1) ([18]; time 60 minutes, P = 0.535): 8.13
Mean difference in glucose (WT + Veh. vs. WT + GLP-1) ([18]; time 120 minutes, P = 0.741): -1.82
Blood glucose lowering in IPGTT ([19]; male Arrb2 KO mice, 15 min before IPGTT): able to lower blood glucose
Mean difference in glucose (Arrb2-/- + Veh. vs. Arrb2-/- + GLP-1) ([19]; time 0, P = 0.011): 20.9
Mean difference in glucose (Arrb2-/- + Veh. vs. Arrb2-/- + GLP-1) ([19]; time 15 minutes, P = 0.008): 44.9
Mean difference in glucose (Arrb2-/- + Veh. vs. Arrb2-/- + GLP-1) ([19]; time 30 minutes, P = 0.0038): 39.3
Mean difference in glucose (Arrb2-/- + Veh. vs. Arrb2-/- + GLP-1) ([19]; time 60 minutes, P = 0.216): 8.48
Mean difference in glucose (Arrb2-/- + Veh. vs. Arrb2-/- + GLP-1) ([19]; time 120 minutes, P = 0.796): 3.39
Insulinotropic properties ([19]; β-arrestin KO mice): maintained its insulinotropic properties
Acute glycaemic control [20]: reduced acute GLP-1-mediated glycaemic control

Molecule: tirzepatide: GIPR–GLP-1R co-agonist
GIPR activation [21]: activation of GIPR as native GIP
cAMP pathway activation at the GLP-1R [22]: full activation of the cAMP pathway
β-arrestin recruitment to the GLP-1R [22]: less recruitment of β-arrestin

Efficacy at 100pmol (cAMP) [23]: 0
B1: S64P (protein)
chain: T2 sequence (P48546 22-466 S64P)
In vitro groups (cAMP) ([2]; cAMP part of the in vitro group): LoF_camp
percentage_camp ([2]; cAMP production compared with WT): <50% cAMP
Beta, cAMP ([2]; in vitro cAMP production per GIPR variant): 0
In vitro groups (β-arrestin) ([17]; arr part of the in vitro group): LoF_arr
Beta, Barr ([17]; in vitro β-arrestin recruitment per GIPR variant): 0
